Experimental data taken from US7592422B2, “Modified plasminogen activator inhibitor type-1 and methods based thereon” (Medical College of Ohio, priority 2002, dated 2009).

Legend:
[1] = system: chicken chorioallantoic membrane (angiogenesis in chick embryos); assay: Chicken chorioallantoic membrane (CAM) assay; format: in vivo
Protocol: The one-day-old fertilized eggs were incubated for three days in the water-jacketed incubator (38° C., 85% humidity). The eggs were cracked and the chick embryos with intact yolks were placed in plastic Petri dishes containing 10 ml of RPMI-1640 medium (38° C., 85% humidity, 3% of CO2). After 3 days of incubation, the methylcellulose disk containing inhibitor was implanted on the CAMs of the individual embryos. After 48 h of incubation, CAM of individual embryo was analyzed for formation of avascular zones and photographed. The angiostatic effect was determined as a percentage of the area of blood vessels under the methylcellulose disks (3-5 eggs for each concentration) in relation to the non-treated areas. The area below the dialysis bag and two non-treated areas were scanned and saved on computer disk as tif files. Color images were converted into black/white images, contrast was enhanced, and images were saved as 16-bitmap files using Paint Software (Microsoft Corporation, Redmond, Va.). Black/white images were converted into false color (rainbow striped) images using Transform2 Software (Fortner, Sterling, Va.). […] This method provides some quantification of angiogenesis.

urokinase LMWt, Abbott = urokinase LMWt, Abbott (Homo sapiens, UniProt P00749); conditions: 0.05 M Tris pH 8.8, 37° C., substrate 0.5 mM, urokinase at 1000 u/mL; cited from earlier work
urokinase HMWt, Choay = urokinase HMWt, Choay (Homo sapiens, UniProt P00749); conditions: 0.05 M Tris pH 8.8, 37° C., substrate 0.5 mM, urokinase at 1000 u/mL; cited from earlier work

## O=C(O[C@@H]1Cc2c(O)cc(O)cc2O[C@@H]1c1cc(O)c(O)c(O)c1)c1cc(O)c(O)c(O)c1 [EGCG, epigallocatechin gallate]
[1]; in methylcellulose disk on CAM
  colour change of methylcellulose disks (sign of probable oxidation): the methylcellulose disks quickly change color

## N=C(N)NC(=O)c1nc(Cl)c(N)nc1N [amiloride]
[1]; 48 h
  large avascular zones outside of areas covered by methylcellulose disk containing the inhibitor: The effect was observed

## Cbo-L-(γ)-Glu (α-t-BuO)-Gly-Arg-pNA.2AcOH [No. 244]
Urokinase LMWt, Abbott
  Vmax: 0.53 μM mm-^1
  κm: 80 µM
Urokinase HMWt, Choay
  Vmax: 0.54 μM mm-^1
  κm: 30 µM

## VEGF
[1]; methylcellulose disk containing VEGF
  vessel formation, positive control disk: dense areas of newly formed vessels were developed
